This note sets out measurements from patent publication US11505528B2, “Inhibitors of microbially induced amyloid” (Axial Therapeutics, Inc., priority 2017, dated 2022).

Like-named read-outs stand apart in the source and are kept apart here.

For one experiment, the target named is T1, E. coli CsgA (Escherichia coli, UniProt P28307).
T1 construct: 6xHis (C); made in house; host or cells: E. coli NEB 3016 slyD::kan
Nature of the experiment: Thioflavin T cell-free assay of CsgA aggregation. Type of experiment: biochemical.

The target in another experiment is T2, human α-synuclein (Homo sapiens, UniProt P37840).
T2 construct: the full-length gene for untagged human α-synuclein was inserted; made in house; host or cells: E. coli BL21 (DE3)
The experiment can be described thus: Thioflavin T cell-free assay of α-synuclein aggregation. The conditions noted are these: α-synuclein 50 μM, compounds at 20-50 μM, data from 36 hours; for Inhibition of Aggregation, αSyn: ThT fluorescence, negative = potentiation. The format is biochemical.

The mark [1] stands for this setting: read-out: Inhibition of Aggregation, CsgA.
[2] abbreviates: read-out: Inhibition of Aggregation, CsgA (compound activity range).

T1 sequence (P28307 23-151): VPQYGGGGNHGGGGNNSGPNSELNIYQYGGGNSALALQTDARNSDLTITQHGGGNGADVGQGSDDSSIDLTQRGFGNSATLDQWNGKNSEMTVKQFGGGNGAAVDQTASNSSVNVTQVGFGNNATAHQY

With `COc1cc(C(=O)Nc2sc3c(c2C(=O)Nc2ccccc2)CCCC3)cc(OC)c1OC` [Compound 9, N-phenyl-2-(3,4,5-trimethoxybenzamido)-4,5,6,7-tetrahydrobenzo[b]thiophene-3-carboxamide], the inhibition at 20 µM on E. coli CsgA (setting [1]) is -33%; on E. coli CsgA (setting [2]) it was less than -10%.
Turning to `O=C(Nc1sc2c(c1C(=O)Nc1ccccc1)CCCC2)c1cc(O)c(O)c(O)c1` [Compound 8, N-phenyl-2-(3,4,5-trihydroxybenzamido)-4,5,6,7-tetrahydrobenzo[b]thiophene-3-carboxamide], at human α-synuclein, the “Inhibition of Aggregation, αSyn” value came to 18% and the “Inhibition of Aggregation, αSyn (compound activity range)” value (shortened to “Inhibition … (compound activity range)”) is recorded as “(+) ((+) is between 10% to 30% inhibition)”. Further, the inhibition at 20 µM on E. coli CsgA (setting [1]) came out at 13%. Besides, the inhibition at 20 µM on E. coli CsgA (setting [2]) lay in the range of 10 to 30%.
Turning to `Nc1sc2c(c1C(=O)Nc1cc(O)c(O)c(O)c1)CCCC2` [Compound 16, 2-amino-N-(3,4,5-trihydroxyphenyl)-4,5,6,7-tetrahydrobenzo[b]thiophene-3-carboxamide], the inhibition at 20 µM at E. coli CsgA (setting [1]) is 31%; on E. coli CsgA (setting [2]), 30 to 60%.
As for `COc1cc2[nH]cc(C(=O)Nc3ccccc3O)c(=O)c2c(OC)c1OC` [Compound 39, N-(2-hydroxyphenyl)-5,6,7-trimethoxy-4-oxo-1,4-dihydroquinoline-3-carboxamide], the inhibition at 20 µM on E. coli CsgA (setting [1]) is -4%; on E. coli CsgA (setting [2]), -10 to 10%.
For the molecule `COc1cc(C(=O)Nc2sc3c(c2C(=O)O)CCCC3)cc(OC)c1OC` [Compound 17, 2-(3,4,5-trimethoxybenzamido)-4,5,6,7-tetrahydrobenzo[b]thiophene-3-carboxylic acid], the inhibition at 20 µM was 18% at E. coli CsgA (setting [1]) and 10 to 30% on E. coli CsgA (setting [2]).
For the molecule `COc1cc(OC)c2c(=O)c(C(=O)Nc3ccccc3O)c[nH]c2c1` [Compound 41, N-(2-hydroxyphenyl)-5,7-dimethoxy-4-oxo-1,4-dihydroquinoline-3-carboxamide], the “Inhibition of Aggregation, αSyn” value at human α-synuclein is on record as 17%. The “Inhibition … (compound activity range)” value on human α-synuclein is “(+) ((+) is between 10% to 30% inhibition)”. Besides, the inhibition at 20 µM was 18% at E. coli CsgA (setting [1]) and 10 to 30% on E. coli CsgA (setting [2]).
With `COc1cc(-c2[nH]c3cc(OC)c(OC)c(OC)c3c(=O)c2C(=O)O)cc(OC)c1OC` [Compound 36, 5,6,7-trimethoxy-4-oxo-2-(3,4,5-trimethoxyphenyl)-1,4-dihydroquinoline-3-carboxylic acid], the figures for the inhibition at 20 µM on E. coli CsgA (setting [1]) and on E. coli CsgA (setting [2]) were -47% and less than -10%, respectively.
As to `COc1cc2[nH]cc(C(=O)Nc3ccccc3)c(=O)c2c(OC)c1OC` [Compound 30, 5,6,7-trimethoxy-4-oxo-N-phenyl-1,4-dihydroquinoline-3-carboxamide], the inhibition at 20 µM on E. coli CsgA (setting [1]) is -56%; at E. coli CsgA (setting [2]), less than -10%.
`O=C(Nc1sc2c(c1C(=O)Nc1cc(O)c(O)c(O)c1)CCCC2)c1cc(O)cc(O)c1` [Compound 4, 2-(3,5-dihydroxybenzamido)-N-(3,4,5-trihydroxyphenyl)-4,5,6,7-tetrahydrobenzo[b]thiophene-3-carboxamide]: the inhibition at 20 µM at E. coli CsgA (setting [1]) is 43%; on E. coli CsgA (setting [2]) it was 30 to 60%.
Turning to `COc1cc(OC)c2c(=O)c(C(=O)Nc3ccc(O)cc3)c[nH]c2c1` [Compound 31, N-(4-hydroxyphenyl)-5,7-dimethoxy-4-oxo-1,4-dihydroquinoline-3-carboxamide], the inhibition at 20 µM is -20% on E. coli CsgA (setting [1]) and less than -10% on E. coli CsgA (setting [2]).
For the molecule `COc1cc(OC)c2c(=O)c(C(=O)Nc3cc(OC)c(OC)c(OC)c3)c[nH]c2c1` [Compound 21, 5,7-dimethoxy-4-oxo-N-(3,4,5-trimethoxyphenyl)-1,4-dihydroquinoline-3-carboxamide], the “Inhibition of Aggregation, αSyn” value on human α-synuclein is −1%. In addition, the “Inhibition … (compound activity range)” value on human α-synuclein was “(−) ((−) is between −10% to 10% inhibition)”. The figures for the inhibition at 20 µM on E. coli CsgA (setting [1]) and at E. coli CsgA (setting [2]) were 4% and -10 to 10%, respectively.
`COc1cc(C(=O)Nc2sc3c(c2C(=O)N(C)c2cc(OC)c(OC)c(OC)c2)CCCC3)cc(OC)c1OC` [Compound 7, N-methyl-2-(3,4,5-trimethoxybenzamido)-N-(3,4,5-trimethoxyphenyl)-4,5,6,7-tetrahydrobenzo[b]thiophene-3-carboxamide]: the inhibition at 20 µM was 2% on E. coli CsgA (setting [1]) and -10 to 10% at E. coli CsgA (setting [2]).
Consider `O=C(Nc1ccccc1)c1c[nH]c2ccccc2c1=O` [Compound 45, 4-oxo-N-phenyl-1,4-dihydroquinoline-3-carboxamide], for which the inhibition at 20 µM on E. coli CsgA (setting [1]) was -18%; on E. coli CsgA (setting [2]), less than -10%.
The like results for `O=C(Nc1cccc(O)c1)c1c[nH]c2ccccc2c1=O` [Compound 46, N-(3-hydroxyphenyl)-4-oxo-1,4-dihydroquinoline-3-carboxamide] were, in that order, -7% and -10 to 10%.
`COc1cc(OC)c2c(=O)c(C(=O)Nc3ccccc3)c[nH]c2c1` [Compound 25, 5,7-dimethoxy-4-oxo-N-phenyl-1,4-dihydroquinoline-3-carboxamide]: at human α-synuclein, the “Inhibition of Aggregation, αSyn” value was found to be 17% and the “Inhibition … (compound activity range)” value is recorded as “(+) ((+) is between 10% to 30% inhibition)”. Further, the inhibition at 20 µM on E. coli CsgA (setting [1]) is -150%. Moreover, on E. coli CsgA (setting [2]), the inhibition at 20 µM was less than -10%.
As to `COc1cc2[nH]cc(C(=O)Nc3ccc(O)cc3)c(=O)c2c(OC)c1OC` [Compound 29, N-(4-hydroxyphenyl)-5,6,7-trimethoxy-4-oxo-1,4-dihydroquinoline-3-carboxamide], the inhibition at 20 µM on E. coli CsgA (setting [1]) was 9%; at E. coli CsgA (setting [2]) it was -10 to 10%.
In the case of `O=C(Nc1ccc(O)cc1)c1c[nH]c2cc(O)c(O)c(O)c2c1=O` [Compound 38, 5,6,7-trihydroxy-N-(4-hydroxyphenyl)-4-oxo-1,4-dihydroquinoline-3-carboxamide], on human α-synuclein, the “Inhibition of Aggregation, αSyn” value was 14% and the “Inhibition … (compound activity range)” value is recorded as “(+) ((+) is between 10% to 30% inhibition)”.
Regarding `COc1cc(NC(=O)c2c(N(C)C(=O)c3cc(OC)c(OC)c(OC)c3)sc3c2CCCC3)cc(OC)c1OC` [Compound 13, 2-(3,4,5-trimethoxy-N-methylbenzamido)-N-(3,4,5-trimethoxyphenyl)-4,5,6,7-tetrahydrobenzo[b]thiophene-3-carboxamide], the values for the inhibition at 20 µM on E. coli CsgA (setting [1]) and on E. coli CsgA (setting [2]) were -16% and less than -10%, respectively.
For `COc1cc(OC)c2c(=O)c(C(=O)Nc3ccc(O)c(F)c3)c[nH]c2c1` [Compound 37, N-(3-fluoro-4-hydroxyphenyl)-5,7-dimethoxy-4-oxo-1,4-dihydroquinoline-3-carboxamide], in that order: -17% and less than -10%.
The like results for `COc1cc2[nH]cc(C(=O)Nc3ccc(O)c(F)c3)c(=O)c2c(OC)c1OC` [Compound 34, N-(3-fluoro-4-hydroxyphenyl)-5,6,7-trimethoxy-4-oxo-1,4-dihydroquinoline-3-carboxamide] were, in that order, -11% and less than -10%.
As for `O=C(Nc1cc(O)c(O)c(O)c1)c1c[nH]c2cc(O)cc(O)c2c1=O` [Compound 22, 5,7-dihydroxy-4-oxo-N-(3,4,5-trihydroxyphenyl)-1,4-dihydroquinoline-3-carboxamide], the inhibition at 20 µM on E. coli CsgA (setting [1]) is 58%; at E. coli CsgA (setting [2]), 30 to 60%.
Take `O=C(Nc1cc(O)cc(O)c1)c1c[nH]c2cc(O)cc(O)c2c1=O` [Compound 47, N-(3,5-dihydroxyphenyl)-5,7-dihydroxy-4-oxo-1,4-dihydroquinoline-3-carboxamide]: the figures for the inhibition at 20 µM at E. coli CsgA (setting [1]) and at E. coli CsgA (setting [2]) were 13% and 10 to 30%, respectively.
For the molecule `COc1cc(OC)cc(C(=O)Nc2sc3c(c2C(=O)Nc2cc(OC)c(OC)c(OC)c2)CCCC3)c1` [Compound 3, 2-(3,5-dimethoxybenzamido)-N-(3,4,5-trimethoxyphenyl)-4,5,6,7-tetrahydrobenzo[b]thiophene-3-carboxamide], the inhibition at 20 µM is -11% on E. coli CsgA (setting [1]) and less than -10% at E. coli CsgA (setting [2]).
Consider `COc1cc(NC(=O)c2c(NC(=O)c3cc(OC)c(OC)c(OC)c3)sc3c2CCCC3)cc(OC)c1OC` [Compound 1, 2-(3,4,5-trimethoxybenzamido)-N-(3,4,5-trimethoxyphenyl)-4,5,6,7-tetrahydrobenzo[b]thiophene-3-carboxamide], for which the figures for the inhibition at 20 µM on E. coli CsgA (setting [1]) and on E. coli CsgA (setting [2]) were 8% and -10 to 10%, respectively.
Regarding `COc1cc(C(=O)Nc2sc3c(c2C(N)=O)CCCC3)cc(OC)c1OC` [Compound 12, 2-(3,4,5-trimethoxybenzamido)-4,5,6,7-tetrahydrobenzo[b]thiophene-3-carboxamide], the inhibition at 20 µM at E. coli CsgA (setting [1]) was -23%; at E. coli CsgA (setting [2]), less than -10%.
The like results for `COc1cc(NC(=O)c2c(NC(=O)c3ccccc3)sc3c2CCCC3)cc(OC)c1OC` [Compound 11, 2-benzamido-N-(3,4,5-trimethoxyphenyl)-4,5,6,7-tetrahydrobenzo[b]thiophene-3-carboxamide] were, in that order, -24% and less than -10%.
The like results for `O=C(Nc1sc2c(c1C(=O)Nc1cc(O)c(O)c(O)c1)CCCC2)c1ccccc1` [Compound 18, 2-benzamido-N-(3,4,5-trihydroxyphenyl)-4,5,6,7-tetrahydrobenzo[b]thiophene-3-carboxamide] were, in that order, 16% and 10 to 30%.
For `COc1cc(OC)c2c(=O)c(C(=O)N(C)c3cc(OC)c(OC)c(OC)c3)c[nH]c2c1` [Compound 35, 5,7-dimethoxy-N-methyl-4-oxo-N-(3,4,5-trimethoxyphenyl)-1,4-dihydroquinoline-3-carboxamide], the inhibition at 20 µM at E. coli CsgA (setting [1]) was -53%; at E. coli CsgA (setting [2]), less than -10%.
Turning to `NC(=O)c1c(NC(=O)c2cc(O)c(O)c(O)c2)sc2c1CCCC2` [Compound 15, 2-(3,4,5-trihydroxybenzamido)-4,5,6,7-tetrahydrobenzo[b]thiophene-3-carboxamide], the inhibition at 20 µM is 52% on E. coli CsgA (setting [1]) and 30 to 60% on E. coli CsgA (setting [2]).
